Assay results as given in patent US9023789B2, “Amylin analogs and pharmaceutical compositions thereof” (Novo Nordisk A/S, priority 2012, dated 2015).
Numbered stars: 1 amine (or outer) side, 2 acyl side, 3 side chain; on linkers, the order of the positions; unused ones are H or OH. Bridge positions count the residues as written; N and C are the ends. Side chains are listed from the residue outwards. Peptide text beside a SMILES is read from it. * marks the point of attachment. C20 diacid = O=C(O)CCCCCCCCCCCCCCCCCCC(=O)*; γGlu = O=C(O)[C@H](CCC(=O)[*:2])N[*:1]; AEEA = NCCOCCOCC(=O)O

Key:
[1] = target: T1, human amylin receptor (membranes from Amylin 3(a)/CRE-luc cells) (Homo sapiens, UniProt O60896+P30988); assay: ASSAY (V) binding to the human amylin receptor (SPA, 125I-rat amylin); conditions: for IC50: Table 4, read-out: hAmylin-R bind IC50;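 on all read-outs here: competition binding of cell membranes (35 ng/µL) mixed with SPA beads in 384-well plates at 40 µL total volume, read by scintillation counting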
T1 construct: expressed in transfected cells
T1 sequence (P30988 25-474): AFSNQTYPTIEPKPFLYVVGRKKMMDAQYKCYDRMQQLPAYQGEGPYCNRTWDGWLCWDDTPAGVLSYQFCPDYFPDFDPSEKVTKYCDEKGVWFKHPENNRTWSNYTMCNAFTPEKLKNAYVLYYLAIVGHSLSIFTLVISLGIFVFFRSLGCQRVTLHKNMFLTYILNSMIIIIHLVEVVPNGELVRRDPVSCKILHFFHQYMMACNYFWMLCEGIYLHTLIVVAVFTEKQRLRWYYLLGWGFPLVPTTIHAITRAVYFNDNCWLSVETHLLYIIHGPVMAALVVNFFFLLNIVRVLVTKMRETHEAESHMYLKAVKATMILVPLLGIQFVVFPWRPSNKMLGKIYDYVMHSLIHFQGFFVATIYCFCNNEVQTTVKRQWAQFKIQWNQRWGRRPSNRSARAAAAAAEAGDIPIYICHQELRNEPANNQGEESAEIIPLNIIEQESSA
T1 sequence (O60896 24-148 partner): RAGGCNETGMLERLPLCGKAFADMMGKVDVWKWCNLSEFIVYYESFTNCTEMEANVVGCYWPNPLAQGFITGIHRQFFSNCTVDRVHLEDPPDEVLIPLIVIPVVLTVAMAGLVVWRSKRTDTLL

[2] = target: T2, human amylin 3(a) receptor (human calcitonin receptor + RAMP-3) in BHK570 cells (Homo sapiens, UniProt O60896+P30988); assay: ASSAY (II)a functional assay, human amylin receptor (CRE luciferase); assay type: cell-based; conditions: for EC50: human amylin receptor functional potency, assay (II), read-out: hAmylin-R funct. EC50
T2 construct: expressed in transfected cells
In short: (§1)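 Receptor activation is measured as cAMP-driven CRE-luciferase expression in BHK cells expressing the calcitonin receptor, with RAMP-3 co-expressed to form the amylin 3(a) receptor. Cells are exposed to compound for 3 hours at 37° C, and luciferase is then quantified by luminescence.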

[3] = tested on: Sprague Dawley (SD) rats; assay: ASSAY (I) efficacy testing on appetite (food intake) using an ad libitum fed rat model; assay type: in vivo; conditions: rat, 30 nmol/kg
In short: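 Individual food consumption was logged each hour up to 7 h and again at 24 h, occasionally 48 h, with Grubbs-test outliers removed. Each 200–250 g Sprague Dawley rat, free-feeding in its home cage under reversed lighting, received a single ip, po or sc dose of 0.01–3 mg/kg at lights-off, alongside a vehicle group.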

[4] = target: T3, rat calcitonin receptor (Rattus norvegicus, UniProt P32214); assay: ASSAY (VIII) binding to the rat calcitonin receptor; conditions: Table 7, read-out: rCTR bind IC50
T3 construct: expressed in transfected cells; host or cells: BHK tk'ts 13 (transient, FuGENE 6), membranes
T3 sequence (P32214 25-479 isoform P32214-2 limits assumed): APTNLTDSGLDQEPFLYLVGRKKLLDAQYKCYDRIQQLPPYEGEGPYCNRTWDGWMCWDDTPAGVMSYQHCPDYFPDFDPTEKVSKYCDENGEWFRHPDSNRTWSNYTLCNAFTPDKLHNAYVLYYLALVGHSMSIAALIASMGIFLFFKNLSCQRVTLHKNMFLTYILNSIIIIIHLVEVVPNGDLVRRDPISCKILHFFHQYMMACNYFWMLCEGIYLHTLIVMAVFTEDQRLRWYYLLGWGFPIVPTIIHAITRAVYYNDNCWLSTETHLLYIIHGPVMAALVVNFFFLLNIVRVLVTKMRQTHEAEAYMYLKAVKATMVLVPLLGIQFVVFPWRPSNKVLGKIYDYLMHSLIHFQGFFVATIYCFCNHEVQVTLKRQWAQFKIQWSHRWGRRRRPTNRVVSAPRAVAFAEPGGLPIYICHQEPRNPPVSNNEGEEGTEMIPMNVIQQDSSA
In short: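 Cell membranes for binding came from BHK tk′ts 13 cells harvested approximately 48 hours after transient transfection with the rat receptor.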

[5] = target: T4, human calcitonin (a) receptor in BHK570 cells (Homo sapiens, UniProt P30988); assay: ASSAY (II)a functional assay, human calcitonin receptor (CRE luciferase); assay type: cell-based; conditions: read-out: hCTR funct. EC50
T4 construct: expressed in transfected cells
T4 sequence (P30988 25-474): T1 sequence (P30988 25-474)
In short: as §1

[6] = Table 5, selectivity, hCTR bind IC50 / hAmylin-R bind IC50
[7] = Table 5a, selectivity, hCTR bind IC50 / hAmylin-R bind IC50
[8] = Table 5b, selectivity, hCTR bind IC50 / hAmylin-R bind IC50
[9] = Table 5c, selectivity, hCTR bind IC50 / hAmylin-R bind IC50
[10] = Table 7, human binding selectivity, included for comparison
[11] = Table 7a (preferred compounds), human binding selectivity, included for comparison
[12] = ratio of human calcitonin receptor binding IC50 to human amylin receptor binding IC50
[13] = hCTR funct. EC50 divided by hAmylin-R funct. EC50
[14] = hCTR funct. EC50 over hAmylin-R funct. EC50
[15] = human functional selectivity: hCTR funct. EC50 / hAmylin-R funct. EC50

CC[C@H](C)[C@H](NC(=O)[C@H](C)NC(=O)CNC(=O)[C@H](Cc1ccccc1)NC(=O)[C@H](CC(N)=O)NC(=O)[C@@H]1CCCN1C(=O)[C@H](CO)NC(=O)[C@H](CO)NC(=O)[C@H](Cc1c[nH]cn1)NC(=O)[C@H](CCCNC(=N)N)NC(=O)[C@H](CC(C)C)NC(=O)[C@H](Cc1ccccc1)NC(=O)[C@H](CCCNC(=N)N)NC(=O)[C@H](C)NC(=O)[C@H](CC(C)C)NC(=O)[C@H](CCCNC(=N)N)NC(=O)[C@H](CCC(N)=O)NC(=O)[C@@H](NC(=O)[C@H](C)NC(=O)[C@@H]1CSSC[C@H](NC(=O)[C@@H](N)CCCCNC(=O)COCCOCCNC(=O)CC[C@H](NC(=O)CCCCCCCCCCCCCCCCCCC(=O)O)C(=O)O)C(=O)N[C@@H](CC(N)=O)C(=O)N[C@@H]([C@@H](C)O)C(=O)N[C@@H](C)C(=O)N[C@@H]([C@@H](C)O)C(=O)N1)[C@@H](C)O)C(=O)N1CCC[C@H]1C(=O)N[C@@H](CO)C(=O)N[C@@H](CO)C(=O)N[C@H](C(=O)N1CCC[C@H]1C(=O)N[C@H](C(=O)NCC(=O)N[C@@H](CO)C(=O)N[C@@H](CC(N)=O)C(=O)N[C@H](C(=O)N[C@@H](Cc1ccc(O)cc1)C(N)=O)[C@@H](C)O)C(C)C)[C@@H](C)O [Example 64] (H-K([AEEA-γGlu-C20 diacid])CNTATCATQRLARFLRHSSPNFGAIPSSTPVGSNTY-NH2; disulfide 2-7; N-terminus assumed)
IC50 [1]: 0.444 nM
Ratio hCT/hAmylin binding [1, 6]: 126.1
Ratio hCT/hAmylin binding [1, 7]: 126.1
Ratio hCT/hAmylin binding [1, 8]: 126.1
Ratio hCT/hAmylin binding [1, 9]: 126.1
Ratio hCT/hAmylin binding [1, 10]: 126.1
Ratio hCT/hAmylin binding [1, 11]: 126.1
Ratio hCT/hAmylin binding [1, 12]: 126.1
Ratio hCT/hAmylin funct. [2, 13]: 60.7
Ratio hCT/hAmylin funct. [2, 14]: 60.7
EC50 [2]: 0.378 nM
Ratio hCT/hAmylin funct. [2, 15]: 60.7
Food intake reduction 0-24 h 30 nmol/kg (%) [3]: 4%
Food intake reduction 24-48 h 30 nmol/kg (%) [3]: 3%
IC50 [4]: 128 nM
EC50 [5]: 22.9 nM

CC[C@H](C)[C@H](NC(=O)[C@H](C)NC(=O)CNC(=O)[C@H](Cc1ccccc1)NC(=O)[C@H](CC(N)=O)NC(=O)[C@@H]1CCCN1C(=O)[C@H](CO)NC(=O)[C@H](CO)NC(=O)[C@H](Cc1c[nH]cn1)NC(=O)[C@H](CCCNC(=N)N)NC(=O)[C@H](CC(C)C)NC(=O)[C@H](Cc1ccccc1)NC(=O)[C@H](CCCNC(=N)N)NC(=O)[C@H](C)NC(=O)[C@H](CC(C)C)NC(=O)[C@H](CCCNC(=N)N)NC(=O)[C@H](CCC(N)=O)NC(=O)[C@@H](NC(=O)[C@H](C)NC(=O)[C@@H]1CSSC[C@H](NC(=O)[C@@H](N)CCCCNC(=O)CC[C@H](NC(=O)CCCCCCCCCCCCCCCCCCC(=O)O)C(=O)O)C(=O)N[C@@H](CC(N)=O)C(=O)N[C@@H]([C@@H](C)O)C(=O)N[C@@H](C)C(=O)N[C@@H]([C@@H](C)O)C(=O)N1)[C@@H](C)O)C(=O)N1CCC[C@H]1C(=O)N[C@@H](CO)C(=O)N[C@@H](CO)C(=O)N[C@H](C(=O)N[C@@H](CC(N)=O)C(=O)N[C@H](C(=O)NCC(=O)N1CCC[C@H]1C(=O)N[C@@H](CC(N)=O)C(=O)N[C@H](C(=O)N[C@@H](Cc1ccc(O)cc1)C(N)=O)[C@@H](C)O)C(C)C)[C@@H](C)O [Example 65] (H-K([γGlu-C20 diacid])CNTATCATQRLARFLRHSSPNFGAIPSSTNVGPNTY-NH2; disulfide 2-7 (inferred); N-terminus assumed)
IC50 [1]: 0.649 nM
Ratio hCT/hAmylin binding [1, 6]: 82.4
Ratio hCT/hAmylin binding [1, 7]: 82.4
Ratio hCT/hAmylin binding [1, 8]: 82.4
Ratio hCT/hAmylin binding [1, 9]: 82.4
Ratio hCT/hAmylin binding [1, 10]: 82.4
Ratio hCT/hAmylin binding [1, 11]: 82.4
Ratio hCT/hAmylin binding [1, 12]: 82.4
Ratio hCT/hAmylin funct. [2, 13]: 38.6
Ratio hCT/hAmylin funct. [2, 14]: 38.6
EC50 [2]: 0.242 nM
Ratio hCT/hAmylin funct. [2, 15]: 38.6
Food intake reduction 0-24 h 30 nmol/kg (%) [3]: 10%
Food intake reduction 24-48 h 30 nmol/kg (%) [3]: 0%
IC50 [4]: 108 nM
EC50 [5]: 9.33 nM

CC[C@H](C)[C@H](NC(=O)[C@H](C)NC(=O)CNC(=O)[C@H](Cc1ccccc1)NC(=O)[C@H](CC(N)=O)NC(=O)[C@@H]1CCCN1C(=O)[C@H](CO)NC(=O)[C@H](CO)NC(=O)[C@H](Cc1c[nH]cn1)NC(=O)[C@H](CCCNC(=N)N)NC(=O)[C@H](CC(C)C)NC(=O)[C@H](Cc1ccccc1)NC(=O)[C@H](CC(N)=O)NC(=O)[C@H](C)NC(=O)[C@H](CC(C)C)NC(=O)[C@H](CCCNC(=N)N)NC(=O)[C@H](CCC(N)=O)NC(=O)[C@@H](NC(=O)[C@H](C)NC(=O)[C@@H]1CSSC[C@H](NC(=O)[C@@H](N)CCCCNC(=O)COCCOCCNC(=O)CC[C@H](NC(=O)CCCCCCCCCCCCCCCCCCC(=O)O)C(=O)O)C(=O)N[C@@H](CC(N)=O)C(=O)N[C@@H]([C@@H](C)O)C(=O)N[C@@H](C)C(=O)N[C@@H]([C@@H](C)O)C(=O)N1)[C@@H](C)O)C(=O)N1CCC[C@H]1C(=O)N[C@@H](CO)C(=O)N[C@@H](CO)C(=O)N[C@H](C(=O)N[C@@H](CC(N)=O)C(=O)N[C@H](C(=O)NCC(=O)N[C@@H](Cc1c[nH]cn1)C(=O)N[C@@H](CC(N)=O)C(=O)N[C@H](C(=O)N[C@@H](Cc1ccc(O)cc1)C(N)=O)[C@@H](C)O)C(C)C)[C@@H](C)O [Example 76] (H-K([AEEA-γGlu-C20 diacid])CNTATCATQRLANFLRHSSPNFGAIPSSTNVGHNTY-NH2; disulfide 2-7; N-terminus assumed)
IC50 [1]: 0.215 nM
Ratio hCT/hAmylin binding [1, 6]: 80.0
Ratio hCT/hAmylin binding [1, 7]: 80.0
Ratio hCT/hAmylin binding [1, 8]: 80.0
Ratio hCT/hAmylin binding [1, 9]: 80.0
Ratio hCT/hAmylin binding [1, 10]: 80.0
Ratio hCT/hAmylin binding [1, 11]: 80.0
Ratio hCT/hAmylin binding [1, 12]: 80.0
Ratio hCT/hAmylin funct. [2, 13]: 24.8
Ratio hCT/hAmylin funct. [2, 14]: 24.8
EC50 [2]: 0.297 nM
Ratio hCT/hAmylin funct. [2, 15]: 24.8
Food intake reduction 0-24 h 30 nmol/kg (%) [3]: 31%
Food intake reduction 24-48 h 30 nmol/kg (%) [3]: 2%
IC50 [4]: 38.9 nM
EC50 [5]: 7.37 nM
